Entries after “also recorded” stand apart in the source; their conditions may differ. Ends that are not written are not given here.

Here are results for 10 substances from publication PMC5538626, “Structural and functional analysis of the GABARAP interaction motif (GIM)” (EMBO Reports, 2017).

Test [1] relates to endogenous GABARAP. The test is described as follows: Co-immunoprecipitation of GFP-mCherry-p62/SQSTM1 with endogenous GABARAP, HEK293 cells. It counts as cell-based. Conditions: HEK293, basal conditions, anti-RFP beads, Western blot; Fig 5A. On the technique in general: A western blot detects proteins with antibodies after separation by electrophoresis.
Test [2] deals with endogenous LC3B. Kind of test: Co-immunoprecipitation of GFP-mCherry-p62/SQSTM1 with endogenous LC3B, HEK293 cells. In kind it is cell-based. Conditions: HEK293, basal conditions, anti-RFP beads, Western blot; Fig 5A.
The subject of test [3] is 6xHis-tagged LC3B and 6xHis-tagged GABARAP. The test is described as follows: Peptide array, preference GABARAP versus LC3B (absorbance ratio). In kind it is binding, human. The conditions noted are these: absorbance GABARAP/LC3B or LC3B/GABARAP, cut-off 1.5-fold; mean of n = 3; Figs 1A, EV1B and C. From the text:
A high number of autophagy receptors or adaptor structures have been reported, yet the basis for their selective interaction with individual members of the ATG8 family is not well understood. We speculated whether the LIR motif alone is able to confer selectivity towards a mATG8 subfamily and whether we could derive a subfamily consensus motif from analysis of known mATG8 interaction partners. To address this question, we screened an array of peptides (presented in Fig EV1A and described in Materials and Methods) with the LIR sequences of 30 known and validated autophagy receptors and adaptors (Table 1) against all six human mATG8s for binding (Figs 1A and EV1B and C). In brief, biotinylated peptides were immobilized on streptavidin‐coated 96‐well plates and incubated with His6‐tagged mATG8 proteins. After washing steps, peptide‐bound mATG8 was detected in an ELISA reader using anti‐His antibodies directly conjugated to HRP (horse radish peroxidase; Fig EV1A).
Dashed red line depicts 1.5‐fold change cut‐off.
Due to the wide range of affinities of various LIR sequences towards the LC3/GABARAP proteins, we have normalized our results by dividing values for LC3B interaction by the corresponding value for interaction with GABARAP (Fig 1A, purple bars) and vice versa (Fig 1A, blue bars) to highlight the potential subfamily selectivity of each LIR sequence tested. We classified ratios greater than 1.5‐fold as an indication of a preferential interaction towards that particular LC3 or GABARAP family member. […] Using this information, we generated a sequence plot (Fig 1B) to ascertain whether there were any common sequence features of the GABARAP‐specific interaction proteins. In addition to the 12 sequences identified in this experiment as preferential GABARAP subfamily interactors, we also included known GABARAP interactors that were not included in our screen (ALFY and KBTBD7). […] The previously identified PLEKHM1‐LIR 19 has a high degree of similarity to this sequence. […] However, it is unclear whether this is the case in vivo.
Biotinylated peptides (JPT, Germany) were immobilized on streptavidin‐coated 96‐well plates (#436014; Thermo Scientific) in 100 μl PBS containing 0.1% Tween‐20 (PT) and 1% BSA (PTB) overnight on a shaker at 8°C. After three washing steps with 200 μl PT, 100 μl of 1 μM HIS6‐tagged mATG fusion proteins isolated from E. coli in PTB was incubated with the immobilized peptides for 1 h at 8°C. After three washing steps with 200 μl PT, HIS6‐ATG8 bound to peptides was detected after 1‐h incubation with anti‐HIS‐HRP antibody (JP‐A00612; Genscript; 1:5,000 in 100 μl PTB) with the help of TMB substrate Reagent Set (BD OptEIA; 75 μl). The reaction (blue coloration) was stopped by addition of 60 μl 1 M H3PO4. Samples were analysed on a Synergy H1 ELISA reader from BioTek at 450 nm.

Test [4] has as its target LC3B. Conditions: p62 LIR with LC3B; no method, no reference given; cited from earlier work. The text has this:
Finally, we wanted to apply and subsequently verify our findings by targeted mutation of established autophagy players: p62, FUNDC1 and FIP200. Due to their impact, we specifically substituted existing residues at positions X1 and Γ of LIRs either singly or in combination to valine, thus driving the LIR sequences towards our GIM consensus sequence (Fig 1).

The subject of test [5] is GFP-LC3/GABARAPs. The test is described as follows: Co-immunoprecipitation of endogenous proteins with GFP-mATG8s in HeLa cells. The conditions noted are these: 4 h KU-0063794 (10 μM) + chloroquine (20 μM), Fig 2C.
Test [6] has as its system all six mATG8 proteins. The test is described as follows: Peptide array (ELISA), all six mATG8s. The conditions noted are these: 450 nm, Fig 3E, n = 4. In general terms: ELISA stands for enzyme-linked immunosorbent assay.
Test [7] has as its system all LC3s. The conditions noted are these: GST pull-down; cited from earlier work. From the text: Due to the wide range of affinities of various LIR sequences towards the LC3/GABARAP proteins, we have normalized our results by dividing values for LC3B interaction by the corresponding value for interaction with GABARAP (Fig 1A, purple bars) and vice versa (Fig 1A, blue bars) to highlight the potential subfamily selectivity of each LIR sequence tested. We classified ratios greater than 1.5‐fold as an indication of a preferential interaction towards that particular LC3 or GABARAP family member.

Test [8] relates to endogenous GABARAP. The test is described as follows: Co-immunoprecipitation of 3xFlag-FIP200 with endogenous GABARAP, HEK293 cells. The conditions noted are these: HEK293, anti-Flag beads, Western blot; Fig 5B. In kind it is cell-based. As for the experimental part:
Blots were probed for the presence of endogenous GABARAP and LC3B proteins. • 3xFlag‐FIP200 WT, E703V, I705V, E703V/I705V and F702A/I705A were overexpressed in HEK293 cells and immunoprecipitated using anti‐Flag beads and subjected to SDS–PAGE and Western blotting. Blots were probed for the presence of endogenous GABARAP and LC3B proteins. • GFP‐FUNDC1 WT, E19V, L21V, E19V/L21V and Y18A/L21A were overexpressed in HEK293 cells and either treated with vehicle only (DMSO) or 20 μM CCCP for 2 h, lysed and GFP‐FUNDC1 immunoprecipitated using anti‐GFP beads (or anti‐RFP beads as control) and subjected to SDS–PAGE and Western blotting. Blots were probed for the presence of endogenous GABARAP and LC3B proteins.

Test [9] has as its system 6xHis-tagged LC3A. The test is described as follows: Peptide array (ELISA), LC3A. Conditions: fold change over WT, mean ± SEM n = 3, Fig EV5A.
The test system of test [10] is 6xHis-tagged LC3B. The test is described as follows: Peptide array (ELISA), LC3B. Conditions: fold change over WT, n = 3, Fig EV5A.
The test system of test [11] is 6xHis-tagged LC3C. Kind of test: Peptide array (ELISA), LC3C. The conditions noted are these: fold change over WT, n = 3, Fig EV5A.
For test [12], the system named is GABARAP family (GABARAP, GABARAP-L1, GABARAP-L2). The test is described as follows: Peptide array (ELISA), GABARAP family. The conditions noted are these: fold change over WT, n = 3, Fig EV5A.
For test [13], the system named is LC3 and GABARAP families. Conditions: cited from earlier work. The text has this: However, despite the ever‐increasing number of LC3/GABARAP interaction partners identified and perhaps the over‐reliance on LC3B as the main marker of autophagosomes, there is now emerging distinct roles of each LC3 and GABARAP subfamily. For example, both LC3 and GABARAP families are essential for autophagy flux 29; however, LC3s were reported to be involved in phagophore extension and GABARAPs required for autophagosome closure 29. Moreover, GABARAP can activate ULK1 complex to initiate autophagy, irrespective of its conjugation status 28. Indeed, this is also reflected in C. elegans homolog ...

As to L341V: GFP-mCherry-p62/SQSTM1 L341V, the “interaction of p62/SQSTM1 with endogenous GABARAP” value in test [1] was “mild effect; also recorded: little effect on LC3/GABARAP‐specific interaction”. Also, the “interaction of p62/SQSTM1 with endogenous LC3B” value in test [2] is “little effect on LC3/GABARAP‐specific interaction”.

As to “DDDWTHLSS [p62/SQSTM1, LIR peptide 335–343, peptide array]”, in [3], the “preference GABARAP versus LC3B” value is reported as “slight preference for GABARAP”. In addition, the Kd in test [4] is roughly 1500 nM.

For “endogenous p62/SQSTM1: endogenous p62/SQSTM1 protein in HeLa cells”, the “co-precipitation of endogenous protein with GFP-mATG8s” value in [5] was “co‐precipitated with all LC3/GABARAP to a similar extent”.

Take “EDEAVNAQY [W635A/V638A, reference compound]”: the “interaction with all mATG8s, alanine scan” value in [6] is on record as “completely disrupted all LIR–mATG8 interactions”.

With EDEWVNVQY [PLEKHM1], the “preference GABARAP versus LC3B” value in test [3] is “clear preference for binding to GABARAP and GABARAP‐L2 over LC3B and LC3C; also recorded: strong preference for GABARAP versus LC3”. The “interaction with LC3s” value in test [7] is reported as “can interact with all LC3s”. In addition, the “ranking of mATG8 binding” value in test [6] was “shows the most potent interaction, followed by GABARAP‐L1, ‐L2, LC3C and LC3A, with LC3B as the weakest interactor”.

Take FVTV: 3xFlag-FIP200 E703V/I705V: the “interaction of FIP200 with endogenous GABARAP” value in test [8] is “enhance the interaction between FIP200 (LIR sequence FDFETIPH) and GABARAP”.

Consider “V638I: PLEKHM1-LIR array peptide V638I (EDEWVNIQY; also: biotin, position not given here)”, for which, in test [9], the “interaction with LC3A, Θ and Γ mutants” value was “did not affect”. In addition, in [10], the “interaction with LC3B, Θ and Γ mutants” value is recorded as “increase the affinity”. In test [11], the “interaction with LC3C, Θ and Γ mutants” value was “did not affect”. Further, the “interaction with GABARAP family, Θ and Γ mutants” value in test [12] is “small decrease in the interaction”.

Take EDSFVEIRM [OPTN, LIR peptide 175–183]: the “subfamily preference after phosphorylation” value in [13] (TBK1 phosphorylation at S177) is given as “switches to LC3B”. In addition, the subfamily preference result in test [13] (unmodified state) is “clearly shows preference for GABARAP”.

With “V638L: PLEKHM1-LIR array peptide V638L (EDEWVNLQY; also: biotin, position not given here)”, the “interaction with LC3A, Θ and Γ mutants” value in [9] is “did not affect”. Moreover, in [10], the “interaction with LC3B, Θ and Γ mutants” value is “increase the affinity”. The “interaction with LC3C, Θ and Γ mutants” value in [11] was “did not affect”. The “interaction with GABARAP family, Θ and Γ mutants” value in test [12] is “small decrease in the interaction”.

Regarding “DAVFDIITD [FYCO1, LIR peptide 1277–1285; in b48 the protein]”, in test [13], the subfamily specificity result is given as “LC3A‐specific adaptor”.

In general, Kd refers to the equilibrium constant for the complex coming apart.
